Experimental data reported in ChEMBL document CHEMBL3390836, “Mannich- and LedererManasse-based analogues of the natural product S-(+)-curcuphenol as cancer proliferation and migration inhibitors” (Medchemcomm, 2012).

Experiments:
Assay type in all cases: functional
MCF7 = assay: Cytotoxicity against human MCF7 cells assessed as cell growth at 10^-8 M after 48 hrs by SRB assay relative to control; conditions: MCF7, 48 h, read-out: Activity
SK-MEL-2 = assay: Cytotoxicity against human SK-MEL-2 cells assessed as cell growth at 10^-4 M after 48 hrs by SRB assay relative to control; conditions: SK-MEL-2, 48 h, read-out: Activity
HL-60(TB) = assay: Cytotoxicity against human HL-60(TB) cells assessed as cell growth at 10^-6 M after 48 hrs by SRB assay relative to control; conditions: HL-60, 48 h, read-out: Activity
SK-MEL-5 = assay: Cytotoxicity against human SK-MEL-5 cells assessed as cell growth at 10^-6 M after 48 hrs by SRB assay relative to control; conditions: SK-MEL-5, 48 h, read-out: Activity
[1] = Cytotoxicity against human NCI-ADR-RES cells assessed as cell growth at 10^-6 M after 48 hrs by SRB assay relative to control; conditions: read-out: Activity
U-251 [2] = assay: Cytotoxicity against human U251 cells assessed as cell growth at 10^-4 M after 48 hrs by SRB assay relative to control; conditions: U-251, 48 h, read-out: Activity
[3] = Cytotoxicity against human NCI-ADR-RES cells after 48 hrs by SRB assay
K562 = assay: Cytotoxicity against human K562 cells after 48 hrs by SRB assay; conditions: K562, 48 h
NCI-H460 [4] = assay: Cytotoxicity against human NCI-H460 cells assessed as cell growth at 10^-7 M after 48 hrs by SRB assay relative to control; conditions: NCI-H460, 48 h, read-out: Activity
MDA-MB-231 [5] = assay: Cytotoxicity against human MDA-MB-231 cells assessed as cell growth at 10^-7 M after 48 hrs by SRB assay relative to control; conditions: MDA-MB-231, 48 h, read-out: Activity
A498 = assay: Cytotoxicity against human A498 cells after 48 hrs by SRB assay; conditions: A498, 48 h
T47D [6] = assay: Cytotoxicity against human T47D cells assessed as cell growth at 10^-6 M after 48 hrs by SRB assay relative to control; conditions: read-out: Activity
U-251 [7] = assay: Cytotoxicity against human U251 cells assessed as cell growth at 10^-7 M after 48 hrs by SRB assay relative to control; conditions: U-251, 48 h, read-out: Activity
HT-29 = assay: Cytotoxicity against human HT-29 cells assessed as cell growth at 10^-8 M after 48 hrs by SRB assay relative to control; conditions: HT-29, 48 h, read-out: Activity
[8] = Cytotoxicity against human HCT15 cells after 48 hrs by SRB assay; conditions: HCT-15, 48 h
SNB-75 = assay: Cytotoxicity against human SNB75 cells assessed as cell growth at 10^-7 M after 48 hrs by SRB assay relative to control; conditions: SNB-75, 48 h, read-out: Activity
DU-145 = assay: Cytotoxicity against human DU145 cells assessed as cell growth at 10^-7 M after 48 hrs by SRB assay relative to control; conditions: DU-145, 48 h, read-out: Activity
Malme-3M = assay: Cytotoxicity against human MALME-3M cells assessed as cell growth at 10^-8 M after 48 hrs by SRB assay relative to control; conditions: read-out: Activity
LOX IMVI [9] = assay: Cytotoxicity against human LOXIMVI cells after 48 hrs by SRB assay
T47D [10] = assay: Cytotoxicity against human T47D cells assessed as cell growth at 10^-7 M after 48 hrs by SRB assay relative to control; conditions: read-out: Activity
[11] = Cytotoxicity against human EKVX cells after 48 hrs by SRB assay
MDA-MB-231 [12] = assay: Cytotoxicity against human MDA-MB-231 cells assessed as cell growth at 10^-8 M after 48 hrs by SRB assay relative to control; conditions: MDA-MB-231, 48 h, read-out: Activity
LOX IMVI [13] = assay: Cytotoxicity against human LOXIMVI cells assessed as cell growth at 10^-6 M after 48 hrs by SRB assay relative to control; conditions: read-out: Activity
NCI-H460 [14] = assay: Cytotoxicity against human NCI-H460 cells assessed as cell growth at 10^-4 M after 48 hrs by SRB assay relative to control; conditions: NCI-H460, 48 h, read-out: Activity
[15] = Cytotoxicity against human EKVX cells assessed as cell growth at 10^-8 M after 48 hrs by SRB assay relative to control; conditions: read-out: Activity
HOP-62 = assay: Cytotoxicity against human HOP62 cells assessed as cell growth at 10^-6 M after 48 hrs by SRB assay relative to control; conditions: HOP-62, 48 h, read-out: Activity
LOX IMVI [16] = assay: Cytotoxicity against human LOXIMVI cells assessed as cell growth at 10^-4 M after 48 hrs by SRB assay relative to control; conditions: read-out: Activity
786-0 = assay: Cytotoxicity against human 786-0 cells assessed as cell growth at 10^-7 M after 48 hrs by SRB assay relative to control; conditions: 786-0, 48 h, read-out: Activity
MDA-MB-435 = assay: Cytotoxicity against human MDA-MB-435 cells assessed as cell growth at 10^-8 M after 48 hrs by SRB assay relative to control; conditions: MDA-MB-435, 48 h, read-out: Activity
SF-295 = assay: Cytotoxicity against human SF295 cells after 48 hrs by SRB assay; conditions: SF-295, 48 h
ACHN [17] = assay: Cytotoxicity against human ACHN cells assessed as cell growth at 10^-7 M after 48 hrs by SRB assay relative to control; conditions: read-out: Activity
SNB-19 = assay: Cytotoxicity against human SNB19 cells assessed as cell growth at 10^-7 M after 48 hrs by SRB assay relative to control; conditions: SNB-19, 48 h, read-out: Activity
KM12 = assay: Cytotoxicity against human KM12 cells assessed as cell growth at 10^-6 M after 48 hrs by SRB assay relative to control; conditions: KM12, 48 h, read-out: Activity
COLO 205 = assay: Cytotoxicity against human COLO205 cells assessed as cell growth at 10^-4 M after 48 hrs by SRB assay relative to control; conditions: COLO 205, 48 h, read-out: Activity
ACHN [18] = assay: Cytotoxicity against human ACHN cells assessed as cell growth at 10^-6 M after 48 hrs by SRB assay relative to control; conditions: read-out: Activity
[19] = Cytotoxicity against human OVCAR4 cells assessed as cell growth at 10^-8 M after 48 hrs by SRB assay relative to control; conditions: OVCAR-4, 48 h, read-out: Activity
[20] = Cytotoxicity against human PC3 cells assessed as cell growth at 10^-4 M after 48 hrs by SRB assay relative to control; conditions: PC-3, 48 h, read-out: Activity
[21] = read-out: LC50 (the source's name)

Compound: COc1ccc(CCN2COc3c([C@@H](C)CCC=C(C)C)ccc(C)c3C2)cc1OC
- growth at 0.01 µM (MCF7): 91%
- growth at 100 µM (SK-MEL-2): -95%
- growth at 1 µM (HL-60(TB)): 100%
- growth at 1 µM (SK-MEL-5): 90%
- growth at 1 µM [1]: 96%
- growth at 100 µM (U-251 [2]): -100%
- GI50 [3]: 2.96 µM
- LC50 (lethal concentration, 50% cell kill) [3]: 35.2 µM
- TGI [3]: 9.51 µM
- GI50 (K562): 3.7 µM
- TGI (K562): 93.5 µM
- CC50 (K562; [21]): > 100 µM
- growth at 0.1 µM (NCI-H460 [4]): 100%
- growth at 0.1 µM (MDA-MB-231 [5]): 82%
- GI50 (A498): 1.96 µM
- TGI (A498): 11.9 µM
- CC50 (A498; [21]): 37.1 µM
- growth at 1 µM (T47D [6]): 88%
- growth at 0.1 µM (U-251 [7]): 88%
- growth at 0.01 µM (HT-29): 97%
- GI50 [8]: 2.84 µM
- TGI [8]: 10.4 µM
- CC50 [8, 21]: 38.2 µM
- growth at 0.1 µM (SNB-75): 86%
- growth at 0.1 µM (DU-145): 94%
- growth at 0.01 µM (Malme-3M): 91%
- GI50 (LOX IMVI [9]): 1.77 µM
- LC50 (concentration killing 50% of cells) (LOX IMVI [9]): 7.96 µM
- TGI (LOX IMVI [9]): 3.75 µM
- growth at 0.1 µM (T47D [10]): 69%
- GI50 [11]: 5.14 µM
- LC50 [11]: > 100 µM
- TGI [11]: 25.4 µM
- growth at 0.01 µM (MDA-MB-231 [12]): 100%
- growth at 1 µM (LOX IMVI [13]): 88%
- growth at 100 µM (NCI-H460 [14]): -92%
- growth at 0.01 µM [15]: 93%
- growth at 1 µM (HOP-62): 97%
- growth at 100 µM (LOX IMVI [16]): -93%
- growth at 0.1 µM (786-0): 65%
- growth at 0.01 µM (MDA-MB-435): 97%
- GI50 (SF-295): 2.02 µM
- TGI (SF-295): 6.56 µM
- CC50 (SF-295; [21]): 29 µM
- growth at 0.1 µM (ACHN [17]): 94%
- growth at 0.1 µM (SNB-19): 96%
- growth at 1 µM (KM12): 93%
- growth at 100 µM (COLO 205): -100%
- growth at 1 µM (ACHN [18]): 85%
- growth at 0.01 µM [19]: 96%
- growth at 100 µM [20]: -61%
